Laboratory results reported in patent US20080201790A1, “Method and product for regulating cell responsiveness to external signals” (priority 1993, published 2008).

Legend:
MEK-1 = MEK-1 (Homo sapiens, UniProt Q02750); conditions: Alessi et al. 1995; cited from earlier work
JNK = JNK solid state kinase assay (GST-Jun) in L929 cells; format: cell-based, murine; conditions: not shown
Experimental: (§1) In panel A cells were treated for 10 minutes with the indicated concentration of TNFα. JNK activation was measured using a solid phase kinase assay resulting in phosphorylation of GST-Jun. In […] the time course of MAPK activation is shown. MAPK was isolated from cell lysates on DEAE sephacel columns and MAPK activation was measured by phosphorylation of the EGFR peptide substrate. Panel C depicts the concentration curve of MAPK activation by TNFα. Cells were treated with the indicated concentration of TNFα and MAPK was assayed.
(§2) Cell lines and culture. L929 cells (ATCC CCL1 were maintained in Dulbecco's modified Eagle's medium with 5% newborn calf serum and 5% bovine calf serum (BCS) supplemented with 100 ug/ml streptomycin and 100 U/ml penicillin. The cells were grown in 10 cm dishes at 37° C. in 7.5% CO2. Cells were made quiescent where indicated by incubation in Dulbecco's modified Eagle's medium and 0.1% bovine serum albumin for 24 h. Recombinant murine TNFα and recombinant human bFGF (147aa) were from R&D Systems, Minneapolis, Minn. Cells were pretreated where indicated with the MEK-1 inhibitor PD#098059 (Parke-Davis Pharmaceutical Corp. Ann Arbor, Mich.) for 1 h at 37° C. Cells were stimulated by incubation with the indicated cytokine or growth factor for various times at 37° C. Stimulation was stopped by rinsing the plates twice with ice cold phosphate buffered saline (PBS) and lysing the cells in the appropriate lysis buffer. Cells were scraped from the plates and nuclei were pelleted for 10 min at 14,000 RPM in a microcentrifuge. JNK assay. JNK activity was measured using a solid state kinase assay in which glutathione S-transferase-c-Jun (1-79) (GST-JUN) cound to glutathione-Sepharose 4B beads was used to affinity purify JNK and then JNK activity was measured in an in vitro kinase assay using the sepharose bound GST-Jun as a substrate (Hibi, M., et al. (1993) Genes & Development 7:2135-2148). Stimulated or unstimulated cells were lysed in 0.5% Nonidet P-40, 20 mM HEPES pH 7.2, 100 mM NaCl, 2 mM dithiothreitol, 1 mM EDTA, 1.0 mM phenylmethylsulfonylfluoride, 1 μg/ml aprotinin and the nuclei pelleted. Lysates were normalized for protein content. JNK was affinity purified from 50-100 μg of cell lysate by the addition of 10 ul of GST-Jun sepharose slurry (2 μg GST-Jun). Binding to GST-Jun efficiently isolates the two major forms of JNK (p45 and p55) and under the conditions used JNK isolation was linear for 10-250 μg of cell lysate. The lysates were rotated at 4° C. for 1-3 h. Beads were washed twice in lysis buffer and then twice in PAN (10 mM PIPES, pH 7.0, 100 mM NaCl, 21 μg/ml aprotinin). Kinase reactions were carried out at 30° C. for 15 min in 20 mM Hepes pH 7.2, 20 mM β-glycerophosphate, 10 mM p-nitrophenyl phosphate, 10 mM MgCl2, 1 mM dithiothreitol, 50 μm sodium vanadate, 10 μCi γ^32P-ATP 4300 Ci/mmole. The kinase reaction was linear from 0-30 min. MAPK Assay MAPK activity was measured exactly as described previously (Gardner, A. M., et al. (1994) Meth. Enzymol. 238:258-270) with the exception that MonoQ FPLC fractionation was replaced by step elution from a DEAE-Sephacel column using 0.5 M NaCl in loading buffer. The eluate was assayed in triplicate using the epidermal growth factor receptor 662-681 peptide (EGFR662-681) as a selective substrate for MAPK activity (Heasley, L. E., et al. (1994) American Journal of Physiology (Renal Fluid Electrolyte Physiol. 36) 267:F366-F373). […] Cells were lysed by scraping in ice cold RIPA buffer (50 mM Tris-HCl, pH 7.2, 150 mM NaCl, 0.1% SDS, 0.5% sodium deoxycholate, 1.0% Triton X-100, 10 mM sodium pyrophosphate, 25 mM β-glycerophosphate, 2 mM sodium vanadate, 2.1 μg/ml aprotinin) and the nuclei were pelletted. […]

L929 cells = assay: Neutral red cell viability assay of L929 cells treated with TNFα and/or bFGF; format: cell-based, murine; conditions: L929 cells
Experimental: In panel A cells were treated with the indicated concentrations of TNFα for 15 hours and were assayed for uptake of neutral red. In panel B cells were untreated (solid bars), treated with 0.5 ng/ml bFGF (dotted bars) or 5.0 ng/ml bFGF (hatched bars) and the indicated concentrations of TNFα for 18 hours. Cell viability was assessed by neutral red assay.
In panel A serum starved L929 cells were untreated or treated for 1 hour at 37° C. with the MEK-1 inhibitor (PD) and then unstimulated or stimulated with bFGF. MAPK activity was measured. In panel B L929 cells were untreated or treated for 1 hour at 37° C. with PD and then were untreated or treated with TNFα alone or in combination with bFGF for 18 hours. Cell viability was assessed by neutral red assay.
Cell lines and culture. L929 cells (ATCC CCL1 were maintained in Dulbecco's modified Eagle's medium with 5% newborn calf serum and 5% bovine calf serum (BCS) supplemented with 100 ug/ml streptomycin and 100 U/ml penicillin. The cells were grown in 10 cm dishes at 37° C. in 7.5% CO2. Cells were made quiescent where indicated by incubation in Dulbecco's modified Eagle's medium and 0.1% bovine serum albumin for 24 h. Recombinant murine TNFα and recombinant human bFGF (147aa) were from R&D Systems, Minneapolis, Minn. Cells were pretreated where indicated with the MEK-1 inhibitor PD#098059 (Parke-Davis Pharmaceutical Corp. Ann Arbor, Mich.) for 1 h at 37° C. Cells were stimulated by incubation with the indicated cytokine or growth factor for various times at 37° C. Stimulation was stopped by rinsing the plates twice with ice cold phosphate buffered saline (PBS) and lysing the cells in the appropriate lysis buffer. Cells were scraped from the plates and nuclei were pelleted for 10 min at 14,000 RPM in a microcentrifuge. JNK assay. JNK activity was measured using a solid state kinase assay in which glutathione S-transferase-c-Jun (1-79) (GST-JUN) cound to glutathione-Sepharose 4B beads was used to affinity purify JNK and then JNK activity was measured in an in vitro kinase assay using the sepharose bound GST-Jun as a substrate (Hibi, M., et al. (1993) Genes & Development 7:2135-2148). Stimulated or unstimulated cells were lysed in 0.5% Nonidet P-40, 20 mM HEPES pH 7.2, 100 mM NaCl, 2 mM dithiothreitol, 1 mM EDTA, 1.0 mM phenylmethylsulfonylfluoride, 1 μg/ml aprotinin and the nuclei pelleted. Lysates were normalized for protein content. JNK was affinity purified from 50-100 μg of cell lysate by the addition of 10 ul of GST-Jun sepharose slurry (2 μg GST-Jun). Binding to GST-Jun efficiently isolates the two major forms of JNK (p45 and p55) and under the conditions used JNK isolation was linear for 10-250 μg of cell lysate. The lysates were rotated at 4° C. for 1-3 h. Beads were washed twice in lysis buffer and then twice in PAN (10 mM PIPES, pH 7.0, 100 mM NaCl, 21 μg/ml aprotinin). Kinase reactions were carried out at 30° C. for 15 min in 20 mM Hepes pH 7.2, 20 mM β-glycerophosphate, 10 mM p-nitrophenyl phosphate, 10 mM MgCl2, 1 mM dithiothreitol, 50 μm sodium vanadate, 10 μCi γ^32P-ATP 4300 Ci/mmole. The kinase reaction was linear from 0-30 min. MAPK Assay MAPK activity was measured exactly as described previously (Gardner, A. M., et al. (1994) Meth. Enzymol. 238:258-270) with the exception that MonoQ FPLC fractionation was replaced by step elution from a DEAE-Sephacel column using 0.5 M NaCl in loading buffer. The eluate was assayed in triplicate using the epidermal growth factor receptor 662-681 peptide (EGFR662-681) as a selective substrate for MAPK activity (Heasley, L. E., et al. (1994) American Journal of Physiology (Renal Fluid Electrolyte Physiol. 36) 267:F366-F373). […]

p42/p44 MAPK = assay: MAPK assay (DEAE-Sephacel, EGFR662-681 peptide) in L929 cells; format: cell-based, murine; conditions: L929 cells
Experimental: as §1
FIG. 26 depicts the activation of MAPK by bFGF in L929 cells. Serum starved L929 cells were stimulated for 10 min with the indicated concentration of bFGF.
as §2

Chain of MEK-1 (Q02750 whole entry, species assumed): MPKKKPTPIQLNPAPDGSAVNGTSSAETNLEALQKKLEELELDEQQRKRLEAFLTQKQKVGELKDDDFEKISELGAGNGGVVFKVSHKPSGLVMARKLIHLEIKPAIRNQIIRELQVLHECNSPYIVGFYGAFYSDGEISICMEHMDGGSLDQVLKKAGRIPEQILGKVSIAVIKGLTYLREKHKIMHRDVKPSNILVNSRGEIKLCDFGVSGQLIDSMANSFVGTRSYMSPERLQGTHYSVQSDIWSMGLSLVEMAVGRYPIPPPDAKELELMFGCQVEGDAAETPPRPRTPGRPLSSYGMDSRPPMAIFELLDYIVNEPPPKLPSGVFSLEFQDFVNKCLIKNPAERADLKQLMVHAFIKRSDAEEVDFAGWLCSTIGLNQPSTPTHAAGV

Structure (SMILES): COc1cccc(-c2cc(=O)c3ccccc3o2)c1N [PD #098059, reference compound]
- inhibition of MEK-1 (MEK-1): inhibits the dual specificity protein kinase, MEK-1
- inhibition of JNK kinase / activation of JNK (JNK): did not inhibit JNK kinase or the activation of JNK
- effect on TNFα-mediated cell death (L929 cells): had no effect on TNFα-mediated apoptosis
- effect on the protective action of bFGF against TNFα (L929 cells): inhibited the protective action of bFGF
- effect on bFGF stimulation of MAPK activity (p42/p44 MAPK): inhibited bFGF stimulation of MAPK activity
